Consider seven compounds from PubChem BioAssay AID1259407 (Chemical Carcinogenesis Research Information System (CCRIS), 2018).

The subject of the data set is CCRIS mutagenicity, Ames/micronucleus/aberration tests. The experiment in a line: CCRIS mutagenicity studies.
Where [1] appears, read: Test System: AMES SALMONELLA TYPHIMURIUM, Strain/Indicator: TA100, Metabolic Activation: NONE, Method: PREINCUBATION
[2] abbreviates: Test System: AMES SALMONELLA TYPHIMURIUM, Strain/Indicator: TA98, Metabolic Activation: NONE, Method: STANDARD PLATE.
The mark [3] stands for this setting: Test System: AMES SALMONELLA TYPHIMURIUM, Strain/Indicator: TA98, Metabolic Activation: RAT, LIVER, S-9, AROCLOR 1254, Method: STANDARD PLATE.
Setting [4] is: Test System: AMES SALMONELLA TYPHIMURIUM, Strain/Indicator: TA100, Metabolic Activation: NONE, Method: STANDARD PLATE.
Setting [5] is: Test System: AMES SALMONELLA TYPHIMURIUM, Strain/Indicator: TA100, Metabolic Activation: RAT, LIVER, S-9, AROCLOR 1254, Method: STANDARD PLATE.

The source made the active and inactive calls. No rule for the calls is given here.

Take `N#Cc1ccc(/C=C/c2ccc([N+](=O)[O-])cc2)cc1`: the mutagenic call by setting is: (Test System: AMES SALMONELLA TYPHIMURIUM, Strain/Indicator: TA98 (NR), Metabolic Activation: NONE, Method: STANDARD PLATE) “active; positive”; (Test System: AMES SALMONELLA TYPHIMURIUM, Strain/Indicator: TA98 (NR), Metabolic Activation: S-9, Method: STANDARD PLATE) “active; positive”; (Test System: AMES SALMONELLA TYPHIMURIUM, Strain/Indicator: TA98, Metabolic Activation: RAT, LIVER, S-9, AROCLOR, Method: STANDARD PLATE) “active; positive”; (Test System: AMES SALMONELLA TYPHIMURIUM, Strain/Indicator: TA98, Metabolic Activation: S-9, Method: STANDARD PLATE) “active; positive”; (Test System: AMES SALMONELLA TYPHIMURIUM, Strain/Indicator: TA100 (NR), Metabolic Activation: NONE, Method: STANDARD PLATE) “inactive; negative”; (Test System: AMES SALMONELLA TYPHIMURIUM, Strain/Indicator: TA100(NR), Metabolic Activation: S-9, Method: STANDARD PLATE) “inactive; negative”. Besides, the mutagenic call was “active; positive” (Test System: AMES SALMONELLA TYPHIMURIUM, Strain/Indicator: TA100, Metabolic Activation: RAT, LIVER, S-9, AROCLOR, Method: STANDARD PLATE) and “active; positive” (Test System: AMES SALMONELLA TYPHIMURIUM, Strain/Indicator: TA100, Metabolic Activation: S-9, Method: STANDARD PLATE).

For `N[C@@H](CCC(=O)N[C@@H](CSc1ccc([N+](=O)[O-])cc1[N+](=O)[O-])C(=O)NCC(=O)O)C(=O)O`, the mutagenic call (Test System: AMES SALMONELLA TYPHIMURIUM, Strain/Indicator: TA100(NR), Metabolic Activation: NONE, Method: PREINCUBATION) is “inactive; negative”; the mutagenic call (Test System: AMES SALMONELLA TYPHIMURIUM, Strain/Indicator: TA100/GSH-, Metabolic Activation: NONE, Method: PREINCUBATION) is “active; positive”; the mutagenic call under setting [1] is “inactive; negative”.

For the compound `CCOCC=O`, the mutagenic call is, setting by setting: (Test System: AMES SALMONELLA TYPHIMURIUM, Strain/Indicator: TA97A, Metabolic Activation: NONE, Method: STANDARD PLATE) “inactive; negative”; (Test System: AMES SALMONELLA TYPHIMURIUM, Strain/Indicator: TA97A, Metabolic Activation: RAT, LIVER, S-9, AROCLOR 1254, Method: STANDARD PLATE) “inactive; negative”; under setting [2], “inactive; negative”; under setting [3], “inactive; negative”; under setting [4], “inactive; negative”; under setting [5], “inactive; negative”. The mutagenic call reads like this: (Test System: AMES SALMONELLA TYPHIMURIUM, Strain/Indicator: TA102, Metabolic Activation: NONE, Method: STANDARD PLATE) “inactive; negative”; (Test System: AMES SALMONELLA TYPHIMURIUM, Strain/Indicator: TA102, Metabolic Activation: RAT, LIVER, S-9, AROCLOR 1254, Method: STANDARD PLATE) “inactive; negative”.

For `O=c1[nH]cnc2[nH]ncc12`, the mutagenic call is “inactive; negative” (Test System: AMES SALMONELLA TYPHIMURIUM, Strain/Indicator: TA98, Metabolic Activation: HAMSTER, LIVER, S-9, AROCLOR 1254, Method: STANDARD PLATE); “inactive; negative” under setting [2]; “inactive; negative” under setting [3]; “inactive; negative” (Test System: AMES SALMONELLA TYPHIMURIUM, Strain/Indicator: TA100, Metabolic Activation: HAMSTER, LIVER, S-9, AROCLOR 1254, Method: STANDARD PLATE); “inactive; negative” under setting [4]; “inactive; negative” under setting [5]. The mutagenic call (Test System: AMES SALMONELLA TYPHIMURIUM, Strain/Indicator: TA1535, Metabolic Activation: HAMSTER, LIVER, S-9, AROCLOR 1254, Method: STANDARD PLATE) is “inactive; negative”; the mutagenic call (Test System: AMES SALMONELLA TYPHIMURIUM, Strain/Indicator: TA1535, Metabolic Activation: NONE, Method: STANDARD PLATE) is “inactive; negative”; the mutagenic call (Test System: AMES SALMONELLA TYPHIMURIUM, Strain/Indicator: TA1535, Metabolic Activation: RAT, LIVER, S-9, AROCLOR 1254, Method: STANDARD PLATE) was “inactive; negative”; the mutagenic call (Test System: AMES SALMONELLA TYPHIMURIUM, Strain/Indicator: TA1537, Metabolic Activation: HAMSTER, LIVER, S-9, AROCLOR 1254, Method: STANDARD PLATE) is “inactive; negative”; the mutagenic call (Test System: AMES SALMONELLA TYPHIMURIUM, Strain/Indicator: TA1537, Metabolic Activation: NONE, Method: STANDARD PLATE) is “inactive; negative”; the mutagenic call (Test System: AMES SALMONELLA TYPHIMURIUM, Strain/Indicator: TA1537, Metabolic Activation: RAT, LIVER, S-9, AROCLOR 1254, Method: STANDARD PLATE) is “inactive; negative”. In addition, the mutagenic call (Test System: AMES SALMONELLA TYPHIMURIUM, Strain/Indicator: TA1538, Metabolic Activation: HAMSTER, LIVER, S-9, AROCLOR 1254, Method: STANDARD PLATE) is “inactive; negative”; the mutagenic call (Test System: AMES SALMONELLA TYPHIMURIUM, Strain/Indicator: TA1538, Metabolic Activation: NONE, Method: STANDARD PLATE) is “inactive; negative”; the mutagenic call (Test System: AMES SALMONELLA TYPHIMURIUM, Strain/Indicator: TA1538, Metabolic Activation: RAT, LIVER, S-9, AROCLOR 1254, Method: STANDARD PLATE) is “inactive; negative”; the mutagenic call (Test System: MOUSE LYMPHOMA, Strain/Indicator: L5178Y (TK+/TK-), Metabolic Activation: NONE, Method: SUSPENSION/PLATE) was “inactive; negative. reevaluation of results: negative”; the mutagenic call (Test System: MOUSE LYMPHOMA, Strain/Indicator: L5178Y (TK+/TK-), Metabolic Activation: RAT, LIVER, S-9, AROCLOR 1254, Method: SUSPENSION/PLATE) was “inactive; negative. reevaluation of results: negative”.

With `O=c1[nH]c(=O)n([C@@H]2O[C@H](CO)[C@@H](O)[C@@H]2O)cc1/C=C/Br`, the mutagenic call reads like this: (Test System: CHINESE HAMSTER V-79, Strain/Indicator: V-79/8-AZAGUANINE, Metabolic Activation: NONE) “inactive; negative”; (Test System: UDS RODENT HEPATOCYTES, Strain/Indicator: THY INCORP, Metabolic Activation: NONE) “inactive; negative”.

Regarding `O=[N+]([O-])c1ccc(-c2csc(Nc3ccccc3)n2)o1`, the mutagenic call (Test System: E. COLI WP2, Strain/Indicator: WP2, Metabolic Activation: NONE, Method: SPOT) is “active; positive”.

In the case of `COc1ccc([N+](=O)[O-])cc1N=Nc1c(O)c(C(=O)Nc2cccc([N+](=O)[O-])c2)cc2ccccc12`, the mutagenic call is “active; positive” (Test System: AMES SALMONELLA TYPHIMURIUM, Strain/Indicator: TA98, Metabolic Activation: HAMSTER, LIVER, S-9, AROCLOR 1254 (10%), Method: PREINCUBATION); “active; positive” (Test System: AMES SALMONELLA TYPHIMURIUM, Strain/Indicator: TA98, Metabolic Activation: NONE, Method: PREINCUBATION); “active; positive” (Test System: AMES SALMONELLA TYPHIMURIUM, Strain/Indicator: TA98, Metabolic Activation: RAT, LIVER, S-9, AROCLOR 1254 (10%), Method: PREINCUBATION); “active; positive” (Test System: AMES SALMONELLA TYPHIMURIUM, Strain/Indicator: TA100, Metabolic Activation: HAMSTER, LIVER, S-9, AROCLOR 1254 (10%), Method: PREINCUBATION); “active; positive” under setting [1]; “active; positive” (Test System: AMES SALMONELLA TYPHIMURIUM, Strain/Indicator: TA100, Metabolic Activation: RAT, LIVER, S-9, AROCLOR 1254 (10%), Method: PREINCUBATION). Further, the mutagenic call (Test System: AMES SALMONELLA TYPHIMURIUM, Strain/Indicator: TA1535, Metabolic Activation: HAMSTER, LIVER, S-9, AROCLOR 1254 (10%), Method: PREINCUBATION) is “inactive; negative”; the mutagenic call (Test System: AMES SALMONELLA TYPHIMURIUM, Strain/Indicator: TA1535, Metabolic Activation: NONE, Method: PREINCUBATION) was “inactive; negative”; the mutagenic call (Test System: AMES SALMONELLA TYPHIMURIUM, Strain/Indicator: TA1535, Metabolic Activation: RAT, LIVER, S-9, AROCLOR 1254 (10%), Method: PREINCUBATION) was “inactive; negative”; the mutagenic call (Test System: AMES SALMONELLA TYPHIMURIUM, Strain/Indicator: TA1537, Metabolic Activation: HAMSTER, LIVER, S-9, AROCLOR 1254 (10%), Method: PREINCUBATION) was “active; positive”; the mutagenic call (Test System: AMES SALMONELLA TYPHIMURIUM, Strain/Indicator: TA1537, Metabolic Activation: NONE, Method: PREINCUBATION) was “active; positive”; the mutagenic call (Test System: AMES SALMONELLA TYPHIMURIUM, Strain/Indicator: TA1537, Metabolic Activation: RAT, LIVER, S-9, AROCLOR 1254 (10%), Method: PREINCUBATION) is “active; positive”.
